# Experiments:
# [1] = test system: Escherichia coli; assay: In vitro antibacterial evaluation: minimum inhibitory concentration (MIC), broth dilution method; format: cell-based; details: 18 hours at 35° C.
# Outline: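 Following NCCLS approved standard M7-A2, compounds are serially diluted from 64 to 0.06 μg/mL in Muller-Hinton II […] and inoculated at 5×10^5 CFU/mL; the MIC is the minimum concentration at which growth is inhibited.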
# [2] = test system: Enterococcus sp.; assay: as above; format: cell-based; details: 18 hours at 35° C.
# Outline: (§1)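 NCCLS M7-A2 broth dilution; Muller-Hinton II […]; 5×10^5 CFU/mL; 64-0.06 μg/mL. MIC = lowest concentration with no growth.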
# [3] = test system: Streptococcus sp.; assay: as above; format: cell-based; details: 18 hours at 35° C.
# Outline: as §1
# [4] = test system: Staphylococcus sp.; assay: as above; format: cell-based; details: 18 hours at 35° C.
# Outline: as §1
# [5] = test system: Staphylococcus aureus-SMITH (GC 4543); assay: Acute lethal infection in mice (ED50); format: in vivo; details: female CD-1 mice, intraperitoneal challenge, intravenous dose 30 min. after infection, 7 day survival ratios
# Outline: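 Female CD-1 mice challenged intraperitoneally with a bacterial dose lethal to untreated controls within 24-48 h. Compound given intravenously in saline or 5% dextrose 30 min post-infection, five mice per dose; ED50 from 7-day survival pooled over 3 tests.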
# [6] = Enterococcus faecalis (ATCC 29212)
# [7] = Enterococcus faecalis (GC 2242)
# [8] = Enterococcus faecalis (GC 2691)
# [9] = Enterococcus faecalis (GC 3059)
# [10] = Enterococcus faecalis (GC 4552)
# [11] = Enterococcus faecalis (GC 4553)
# [12] = Enterococcus faecalis (GC 4554)
# [13] = Enterococcus faecalis (GC 6189)
# [14] = broth dilution, inoculum 5×10^5 CFU/mL
# [15] = Streptococcus agalactiae (GC 4564)
# [16] = Streptococcus pneumoniae (ATCC 6301)
# [17] = Streptococcus pneumoniae (GC 1894)
# [18] = Streptococcus pneumoniae (GC 4565)
# [19] = Streptococcus pyogenes (GC 4563)
compound,measurement,setting,value
"CC(c1ccccc1)C1NC(=O)CNC(=O)C(CO)NC(=O)C(C(O)C2CNC(=N)N2C2OC(CO)C(O)C(O)C2O)NC(=O)C(C(O)C2CNC(=N)N2)NC(=O)C(Cc2ccc(OC3OC(CO)C(OC4OC(COCc5ccc(OCc6ccccc6)cc5)C(O)C(O)C4O)C(O)C3O)cc2)NC1=O (stereo not drawn) [Example 231, Cyclo[glycyl-β-methylphenylalanyl-O-[4-O-[6-O-[4-(phenylmethoxy)benzyl]hexopyranosyl]-hexopyranosyl)tyrosyl-3-(2-iminoimidazolidin-4-yl)seryl-3-(3-hexopyranosyl-2-iminoimidazolidin-4-yl)serylseryl]]",MIC Escherichia coli (GC 4560),[1],0.5 to 2 µg/mL
same,MIC Enterococcus avium (GC 4558),[2]; Enterococcus avium (GC 4558),2 to 4 µg/mL
same,MIC Enterococcus faecalis (ATCC 29212),[2]; [6],4 µg/mL
same,MIC Enterococcus faecalis (GC 2242),[2]; [7],4 µg/mL
same,MIC Enterococcus faecalis (GC 2691),[2]; [8],2 to 4 µg/mL
same,MIC Enterococcus faecalis (GC 3059),[2]; [9],2 to 4 µg/mL
same,MIC Enterococcus faecalis (GC 4552),[2]; [10],4 µg/mL
same,MIC Enterococcus faecalis (GC 4553),[2]; [11],4 µg/mL
same,MIC Enterococcus faecalis (GC 4554),[2]; [12],4 µg/mL
same,MIC Enterococcus faecalis (GC 6189),[2]; [13],2 to 4 µg/mL
same,MIC Enterococcus faecium (GC 2243),[2]; Enterococcus faecium (GC 2243),4 µg/mL
same,MIC Enterococcus faecium (GC 4556),[2]; Enterococcus faecium (GC 4556),4 µg/mL
same,MIC Enterococcus faecium (GC 4557),[2]; Enterococcus faecium (GC 4557),1 to 2 µg/mL
same,MIC Enterococcus avium (GC 4558),[2]; [14],2 to 4 µg/mL
same,MIC Enterococcus faecalis (ATCC 29212),[2]; [14],4 µg/mL
same,MIC Enterococcus faecalis (GC 2242),[2]; [14],4 µg/mL
same,MIC Enterococcus faecalis (GC 2691),[2]; [14],2 to 4 µg/mL
same,MIC Enterococcus faecalis (GC 3059),[2]; [14],2 to 4 µg/mL
same,MIC Enterococcus faecalis (GC 4552),[2]; [14],4 µg/mL
same,MIC Enterococcus faecalis (GC 4553),[2]; [14],4 µg/mL
same,MIC Enterococcus faecalis (GC 4554),[2]; [14],4 µg/mL
same,MIC Enterococcus faecalis (GC 6189),[2]; [14],2 to 4 µg/mL
same,MIC Enterococcus faecium (GC 2243),[2]; [14],4 µg/mL
same,MIC Enterococcus faecium (GC 4556),[2]; [14],4 µg/mL
same,MIC Enterococcus faecium (GC 4557),[2]; [14],1 to 2 µg/mL
same,MIC Streptococcus agalactiae (GC 4564),[3]; [15],<0.06 µg/mL
same,MIC Streptococcus pneumoniae (ATCC 6301),[3]; [16],<0.06 µg/mL
same,MIC Streptococcus pneumoniae (GC 1894),[3]; [17],<0.06 µg/mL
same,MIC Streptococcus pneumoniae (GC 4565),[3]; [18],<0.06 µg/mL
same,MIC Streptococcus pyogenes (GC 4563),[3]; [19],<0.06 µg/mL
same,MIC Streptococcus agalactiae (GC 4564),[3]; [14],<0.06 µg/mL
same,MIC Streptococcus pneumoniae (ATCC 6301),[3]; [14],<0.06 µg/mL
same,MIC Streptococcus pneumoniae (GC 1894),[3]; [14],<0.06 µg/mL
same,MIC Streptococcus pneumoniae (GC 4565),[3]; [14],<0.06 µg/mL
same,MIC Streptococcus pyogenes (GC 4563),[3]; [14],<0.06 µg/mL
same,MIC Coagulase Negative Staphylococcus (GC 4547),[4],1 to 2 µg/mL
same,MIC Coagulase Negative Staphylococcus (GC 4548),[4]; Coagulase Negative Staphylococcus (GC 4548),0.5 to 1 µg/mL
same,MIC Coagulase Negative Staphylococcus (GC 4551),[4],1 µg/mL
same,MIC Coagulase Negative Staphylococcus (GC 6257),[4],0.5 to 1 µg/mL
same,MIC Staphylococcus aureus (ATCC 29213),[4],1 to 4 µg/mL
same,MIC Staphylococcus aureus (GC 1131),[4],2 to 4 µg/mL
same,MIC Staphylococcus aureus (GC 3051),[4],1 to 2 µg/mL
same,MIC Staphylococcus aureus (GC 3053),[4],1 to 2 µg/mL
same,MIC Staphylococcus aureus (GC 4541),[4],1 to 4 µg/mL
same,MIC Staphylococcus aureus (GC 4542),[4],2 to 4 µg/mL
same,MIC Staphylococcus aureus (GC 4544),[4],2 to 4 µg/mL
same,MIC Staphylococcus aureus (GC 4545),[4],1 to 4 µg/mL
same,MIC Staphylococcus aureus-SMITH (GC 4543),[4],2 µg/mL
same,MIC Staphylococcus haemolyticus (GC 4546),[4],1 to 4 µg/mL
same,"median effective dose (ED50), Staphylococcus aureus-SMITH (GC 4543)",[5],0.25 mg/kg
"CC(c1ccccc1)C1NC(=O)CNC(=O)C(CO)NC(=O)C(C(O)C2CNC(=N)N2C2OC(CO)C(O)C(O)C2O)NC(=O)C(C(O)C2CNC(=N)N2)NC(=O)C(Cc2ccc(OC3OC(CO)C(OC4OC(CO)C(OCc5ccc(OCc6ccccc6)cc5)C(O)C4O)C(O)C3O)cc2)NC1=O (stereo not drawn) [Example 231a, Cyclo[glycyl-β-methylphenylalanyl-O-[4-O-[4-O-[4-(phenylmethoxy)benzyl]hexopyranosyl]-hexopyranosyl]tyrosyl-3-(2-iminoimidazolidin-4-yl)seryl-3-(3-hexopyranosyl-2-iminoimidazolidin-4-yl)serylseryl]]",MIC Escherichia coli (GC 4559),[1]; Escherichia coli (GC 4559),32 µg/mL
same,MIC Escherichia coli (GC 4560),[1],0.5 to 2 µg/mL
same,MIC Enterococcus avium (GC 4558),[2]; Enterococcus avium (GC 4558),2 µg/mL
same,MIC Enterococcus faecalis (ATCC 29212),[2]; [6],2 µg/mL
same,MIC Enterococcus faecalis (GC 2242),[2]; [7],2 to 4 µg/mL
same,MIC Enterococcus faecalis (GC 2691),[2]; [8],2 µg/mL
same,MIC Enterococcus faecalis (GC 3059),[2]; [9],1 to 2 µg/mL
same,MIC Enterococcus faecalis (GC 4552),[2]; [10],4 µg/mL
same,MIC Enterococcus faecalis (GC 4553),[2]; [11],4 µg/mL
same,MIC Enterococcus faecalis (GC 4554),[2]; [12],4 µg/mL
same,MIC Enterococcus faecalis (GC 6189),[2]; [13],1 to 2 µg/mL
same,MIC Enterococcus faecium (GC 2243),[2]; Enterococcus faecium (GC 2243),2 µg/mL
same,MIC Enterococcus faecium (GC 4556),[2]; Enterococcus faecium (GC 4556),2 to 4 µg/mL
same,MIC Enterococcus faecium (GC 4557),[2]; Enterococcus faecium (GC 4557),2 µg/mL
same,MIC Enterococcus avium (GC 4558),[2]; [14],2 µg/mL
same,MIC Enterococcus faecalis (ATCC 29212),[2]; [14],2 µg/mL
same,MIC Enterococcus faecalis (GC 2242),[2]; [14],2 to 4 µg/mL
same,MIC Enterococcus faecalis (GC 2691),[2]; [14],2 µg/mL
same,MIC Enterococcus faecalis (GC 3059),[2]; [14],1 to 2 µg/mL
same,MIC Enterococcus faecalis (GC 4552),[2]; [14],4 µg/mL
same,MIC Enterococcus faecalis (GC 4553),[2]; [14],4 µg/mL
same,MIC Enterococcus faecalis (GC 4554),[2]; [14],4 µg/mL
same,MIC Enterococcus faecalis (GC 6189),[2]; [14],1 to 2 µg/mL
same,MIC Enterococcus faecium (GC 2243),[2]; [14],2 µg/mL
same,MIC Enterococcus faecium (GC 4556),[2]; [14],2 to 4 µg/mL
same,MIC Enterococcus faecium (GC 4557),[2]; [14],2 µg/mL
same,MIC Streptococcus agalactiae (GC 4564),[3]; [15],<0.06 µg/mL
same,MIC Streptococcus pneumoniae (ATCC 6301),[3]; [16],<0.06 µg/mL
same,MIC Streptococcus pneumoniae (GC 1894),[3]; [17],<0.06 µg/mL
same,MIC Streptococcus pneumoniae (GC 4565),[3]; [18],<0.06 µg/mL
same,MIC Streptococcus pyogenes (GC 4563),[3]; [19],<0.06 µg/mL
same,MIC Streptococcus agalactiae (GC 4564),[3]; [14],<0.06 µg/mL
same,MIC Streptococcus pneumoniae (ATCC 6301),[3]; [14],<0.06 µg/mL
same,MIC Streptococcus pneumoniae (GC 1894),[3]; [14],<0.06 µg/mL
same,MIC Streptococcus pneumoniae (GC 4565),[3]; [14],<0.06 µg/mL
same,MIC Streptococcus pyogenes (GC 4563),[3]; [14],<0.06 µg/mL
same,MIC Coagulase Negative Staphylococcus (GC 4547),[4],1 µg/mL
same,MIC Coagulase Negative Staphylococcus (GC 4551),[4],0.5 µg/mL
same,MIC Coagulase Negative Staphylococcus (GC 6257),[4],0.5 µg/mL
same,MIC Staphylococcus aureus (ATCC 29213),[4],1 to 2 µg/mL
same,MIC Staphylococcus aureus (GC 1131),[4],1 to 2 µg/mL
same,MIC Staphylococcus aureus (GC 3051),[4],1 µg/mL
same,MIC Staphylococcus aureus (GC 3053),[4],1 to 2 µg/mL
same,MIC Staphylococcus aureus (GC 4541),[4],1 to 2 µg/mL
same,MIC Staphylococcus aureus (GC 4542),[4],0.5 to 1 µg/mL
same,MIC Staphylococcus aureus (GC 4544),[4],2 to 4 µg/mL
same,MIC Staphylococcus aureus (GC 4545),[4],1 to 2 µg/mL
same,MIC Staphylococcus aureus-SMITH (GC 4543),[4],1 µg/mL
same,MIC Staphylococcus haemolyticus (GC 4546),[4],1 µg/mL
same,"median effective dose (ED50), Staphylococcus aureus-SMITH (GC 4543)",[5],0.06 mg/kg
